Data taken from patent publication US20160022675A1, “PROCESSES FOR PREPARING TETRAHYDROISOQUINOLINES” (BRISTOL-MYERS SQUIBB COMPANY, priority 2013, published 2016).
Read-outs that look alike come from different tables or passages of the source.

What was measured:
DAT [1] = biological target: T1, DAT (Mus musculus, UniProt Q61327); assay: DAT occupancy in the brain, mouse; type: in vivo
T1 construct: from tissue; host or cells: mouse brain
Procedure: (§1) The effects of Compound 1-(4S) in the mouse tail suspension model of depression and target site occupancy were assessed to compare occupancies associated with the behavioral response. The mouse tail suspension model is known the art. […] The lowest effective dose of Compound 1-(4S), 0.3 mg/kg, PO, decreased immobility by 77% relative to vehicle-treated controls. […] Administration of Compound 1-(4S) led to dose-dependent occupancy of SERT, NET, and DAT binding sites in the brain. At the lowest behaviorally-effective dose (0.3 mg/kg), occupancies were 86±1% of SERT, 76±3% of NET, and 28±3% of DAT. At 1 mg/kg, occupancies were 89±1%, 82±1% and 54±3% at SERT, NET, and DAT, respectively. Pharmacokinetics and pharmacodynamics (PD) in mouse, rat, and dog focused primarily on DAT occupancy since SERT and NET occupancies were saturated by drug for most, if not all, of the times studied. DAT occupancy increased as a function of increasing plasma exposure. The DAT occupancy to total plasma level could be fitted using a single binding site model and plasma level ED50 (the dose producing 50% effect) values could be calculated.
(§2) To better understand the margin between doses of Compound 1-(4S) that are effective in the mouse tail suspension models and those that lead to monoamine-related side effects, locomotor activity was examined to assess psychostimulant properties and stereotypy was examined to assess more severe DA-related side effects. Increased body temperature, another effect that has been attributed to DA pharmacology, was also studied. In the mouse, Compound 1-(4S) increased locomotor activity and stereotypy scores at doses of 3.0 mg/kg and 10 mg/kg, respectively. Thus, the margin between the Compound 1-(4S) effective dose in the mouse tail suspension and increased locomotor activity was 10-fold and the margin versus activity in stereotypy was 30-fold. The thermogenic effect of Compound 1-(4S) was studied in mice and rats by measuring changes in rectal temperature following administration of the compound. […] The onset of the thermogenesis was earlier as the dose was increased. The levels of SERT and NET occupancy were over 80% and appeared saturated across the doses tested. The DAT occupancy was dose-dependent, with 55±5.7% at 1.0 mg/kg, 74±6% at 3.0 mg/kg, and 83±0.8% at 10 mg/kg. […] The onset of the temperature increase was earlier at the highest dose of 10 mg/kg. […] The DAT occupancy was 37±8.3%, 55±5.2%, and 71±1.7% at 1.0, 3.0, and 10 mg/kg, respectively. Consistent with data obtained with mice, the thermogenic effect of Compound 1-(4S) is dose dependently related to DAT occupancy and at least 50% DAT occupancy is needed for this effect.

DAT [2] = biological target: T2, DAT (Rattus norvegicus, UniProt P23977); assay: DAT occupancy, rat; type: in vivo
T2 construct: from tissue; host or cells: rat, in vivo dosing
T2 sequence (P23977 whole entry): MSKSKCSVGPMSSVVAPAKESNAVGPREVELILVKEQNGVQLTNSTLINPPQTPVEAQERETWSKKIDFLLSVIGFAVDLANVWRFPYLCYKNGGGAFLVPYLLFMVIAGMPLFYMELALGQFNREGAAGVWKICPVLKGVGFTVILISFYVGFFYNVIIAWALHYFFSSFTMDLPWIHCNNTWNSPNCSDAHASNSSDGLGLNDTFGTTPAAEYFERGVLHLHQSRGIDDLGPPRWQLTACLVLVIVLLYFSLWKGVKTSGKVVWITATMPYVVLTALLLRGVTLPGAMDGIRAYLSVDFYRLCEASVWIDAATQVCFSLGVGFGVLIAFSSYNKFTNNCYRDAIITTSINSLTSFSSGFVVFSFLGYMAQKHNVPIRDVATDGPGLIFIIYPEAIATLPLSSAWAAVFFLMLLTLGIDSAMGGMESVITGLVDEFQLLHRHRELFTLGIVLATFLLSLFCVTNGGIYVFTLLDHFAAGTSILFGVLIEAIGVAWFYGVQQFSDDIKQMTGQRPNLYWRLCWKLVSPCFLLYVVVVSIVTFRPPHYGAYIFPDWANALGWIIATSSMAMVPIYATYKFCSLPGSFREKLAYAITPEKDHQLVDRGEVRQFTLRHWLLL
Procedure: as §1, §2

locomotor activity = assay: Locomotor activity, mouse; type: in vivo
From the text: as §2, with “Consistent with data obtained with mice, the thermogenic effect of Compound 1-(4S) is dose dependently related to DAT occupancy and at least 50% DAT occupancy is needed for this effect.” left out

stereotypy = assay: Stereotypy, mouse; type: in vivo
From the text: as §2, with “Consistent with data obtained with mice, the thermogenic effect of Compound 1-(4S) is dose dependently related to DAT occupancy and at least 50% DAT occupancy is needed for this effect.” left out

SERT [3] = biological target: T3, SERT (Rattus norvegicus, UniProt P31652); assay: SERT occupancy, rat; type: in vivo; conditions: thermogenesis study, all 3 doses (1.0, 3.0, 10 mg/kg)
T3 construct: from tissue; host or cells: rat, in vivo dosing
T3 sequence (P31652 whole entry): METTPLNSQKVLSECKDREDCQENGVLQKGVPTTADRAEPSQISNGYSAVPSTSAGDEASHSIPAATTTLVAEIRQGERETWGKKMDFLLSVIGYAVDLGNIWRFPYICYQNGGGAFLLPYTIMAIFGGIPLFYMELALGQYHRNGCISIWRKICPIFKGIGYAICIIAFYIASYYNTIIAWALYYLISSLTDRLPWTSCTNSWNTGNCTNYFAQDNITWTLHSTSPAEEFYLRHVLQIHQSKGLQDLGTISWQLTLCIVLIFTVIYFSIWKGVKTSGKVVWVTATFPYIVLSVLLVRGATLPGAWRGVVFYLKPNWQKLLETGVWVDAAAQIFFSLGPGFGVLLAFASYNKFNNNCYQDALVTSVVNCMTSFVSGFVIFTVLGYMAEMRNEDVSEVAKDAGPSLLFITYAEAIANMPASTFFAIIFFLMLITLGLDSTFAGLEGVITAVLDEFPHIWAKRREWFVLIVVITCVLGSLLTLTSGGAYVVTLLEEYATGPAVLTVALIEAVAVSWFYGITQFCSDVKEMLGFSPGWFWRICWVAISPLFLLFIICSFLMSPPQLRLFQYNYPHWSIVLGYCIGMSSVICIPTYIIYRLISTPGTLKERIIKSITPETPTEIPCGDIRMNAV
From the text: as §2, with “Consistent with data obtained with mice, the thermogenic effect of Compound 1-(4S) is dose dependently related to DAT occupancy and at least 50% DAT occupancy is needed for this effect.” left out

NET [4] = biological target: T4, NET (Rattus norvegicus, UniProt Q63380); assay: NET occupancy, rat; type: in vivo; conditions: thermogenesis study, all 3 doses (1.0, 3.0, 10 mg/kg)
T4 construct: from tissue; host or cells: rat, in vivo dosing
T4 sequence (Q63380 1-617): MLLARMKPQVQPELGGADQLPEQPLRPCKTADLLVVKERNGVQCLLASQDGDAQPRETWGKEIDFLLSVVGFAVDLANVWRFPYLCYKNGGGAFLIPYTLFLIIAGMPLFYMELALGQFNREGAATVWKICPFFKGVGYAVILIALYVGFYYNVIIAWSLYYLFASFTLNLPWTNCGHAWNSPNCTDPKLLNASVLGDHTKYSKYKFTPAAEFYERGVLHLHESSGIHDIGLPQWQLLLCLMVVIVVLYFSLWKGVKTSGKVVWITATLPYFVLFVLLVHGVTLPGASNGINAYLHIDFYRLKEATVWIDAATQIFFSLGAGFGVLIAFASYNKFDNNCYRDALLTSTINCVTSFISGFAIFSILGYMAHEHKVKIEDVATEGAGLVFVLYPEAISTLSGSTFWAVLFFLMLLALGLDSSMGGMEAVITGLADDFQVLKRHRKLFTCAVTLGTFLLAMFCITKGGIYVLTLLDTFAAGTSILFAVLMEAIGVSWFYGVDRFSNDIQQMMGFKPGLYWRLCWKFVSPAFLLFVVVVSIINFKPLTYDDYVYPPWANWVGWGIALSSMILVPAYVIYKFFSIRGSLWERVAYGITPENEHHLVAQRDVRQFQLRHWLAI
From the text: as §2, with “Consistent with data obtained with mice, the thermogenic effect of Compound 1-(4S) is dose dependently related to DAT occupancy and at least 50% DAT occupancy is needed for this effect.” left out

cocaine-lever responding = conditions: rat, in vivo; for cocaine-lever responding: po
Procedure: Compound 1-(4S) was evaluated in a cocaine discrimination assay in rats, a model used to address abuse potential. The cocaine discrimination assay is known the art Compound 1-(4S) was administered and the percentage of rats that responded by selecting the cocaine-associated lever was measured. […] Since the subjective effects of cocaine are evident 15 minutes after dosing, Compound 1-(4S) was tested at the earlier time point. […] In addition, the onset of this partial effect was slower than the onset of the subjective effects of cocaine in this model.

Solution pH = type: physicochemical; conditions: at about 1 μg/mL concentration in water
[5] = Solubility profile (USP definition) in solvents; type: physicochemical
Stability = type: physicochemical; conditions: with protection from light
NET [6] = biological target: NET (Homo sapiens, UniProt P23975); assay: [3H]NE uptake into HEK293/hNET cells; type: cell-based; parameters: expressed in transfected cells; host or cells: HEK293; conditions: read-out: Norepinephrine reuptake IC50 ([3H]NE uptake)
Sequence of NET (Homo sapiens, UniProt P23975) (P23975 whole entry): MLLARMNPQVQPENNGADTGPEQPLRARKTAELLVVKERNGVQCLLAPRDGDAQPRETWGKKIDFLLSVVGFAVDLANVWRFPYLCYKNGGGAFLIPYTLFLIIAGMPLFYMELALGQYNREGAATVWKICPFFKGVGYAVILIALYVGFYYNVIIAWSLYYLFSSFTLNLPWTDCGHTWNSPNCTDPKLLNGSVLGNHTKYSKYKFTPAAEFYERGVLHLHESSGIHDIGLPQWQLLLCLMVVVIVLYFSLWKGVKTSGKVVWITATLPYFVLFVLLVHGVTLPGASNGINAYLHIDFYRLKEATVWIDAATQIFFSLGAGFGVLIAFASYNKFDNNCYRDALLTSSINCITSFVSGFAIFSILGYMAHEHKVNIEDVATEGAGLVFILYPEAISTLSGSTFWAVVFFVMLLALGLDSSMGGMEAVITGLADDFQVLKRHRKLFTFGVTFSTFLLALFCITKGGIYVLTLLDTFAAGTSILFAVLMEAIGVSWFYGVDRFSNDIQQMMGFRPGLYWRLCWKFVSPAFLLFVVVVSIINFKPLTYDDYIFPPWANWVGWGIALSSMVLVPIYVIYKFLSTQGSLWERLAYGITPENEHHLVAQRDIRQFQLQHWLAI
From the text: (§3) Cell-based assays were used to determine the ability of Compound 1-(4S) to inhibit reuptake of 3H-labeled DA ([3H]DA), NE ([3H]NE), and 5-HT ([3H]5-HT).

SERT [7] = biological target: T5, SERT (Homo sapiens, UniProt P31645); assay: [3H]5-HT uptake into HEK293/hSERT cells; type: cell-based; parameters: expressed in transfected cells; host or cells: HEK293; conditions: read-out: Serotonin reuptake IC50 ([3H]5-HT uptake)
T5 sequence (P31645 whole entry): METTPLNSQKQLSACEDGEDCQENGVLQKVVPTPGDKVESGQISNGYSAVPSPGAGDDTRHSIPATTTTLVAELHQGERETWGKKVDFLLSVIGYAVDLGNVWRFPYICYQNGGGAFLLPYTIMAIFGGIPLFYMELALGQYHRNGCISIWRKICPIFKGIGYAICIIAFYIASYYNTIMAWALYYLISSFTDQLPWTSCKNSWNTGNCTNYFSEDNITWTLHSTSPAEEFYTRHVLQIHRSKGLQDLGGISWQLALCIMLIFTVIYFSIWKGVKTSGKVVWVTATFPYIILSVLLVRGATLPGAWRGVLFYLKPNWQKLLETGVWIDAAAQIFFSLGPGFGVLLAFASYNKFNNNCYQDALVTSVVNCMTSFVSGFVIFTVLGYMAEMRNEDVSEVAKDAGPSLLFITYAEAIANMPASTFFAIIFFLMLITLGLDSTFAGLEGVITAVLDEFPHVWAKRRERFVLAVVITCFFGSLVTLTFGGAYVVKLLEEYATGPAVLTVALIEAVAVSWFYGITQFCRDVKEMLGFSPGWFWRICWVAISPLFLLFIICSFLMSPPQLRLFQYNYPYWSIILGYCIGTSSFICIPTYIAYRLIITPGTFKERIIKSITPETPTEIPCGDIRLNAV
From the text: as §3

SERT [8] = biological target: T5, SERT; assay: Competition binding, membranes from HEK cells overexpressing SERT; parameters: expressed in transfected cells; host or cells: HEK cells (membranes)
Procedure: Competition binding experiments were performed to determine the in vitro binding potencies (IC50 values) of Compound 1-(4S) for SERT, DAT, and NET. Membranes prepared from human embryonic kidney (HEK) cells overexpressing each transporter were employed. Radioligands were used at their respective affinity constant (Kd) concentrations for each transporter to enable direct comparisons of the IC50 values between assays.

[9] = single binding site model, read-out: total plasma concentration producing 50% effect (EC50), DAT occupancy

T1 sequence (Q61327 whole entry): as the sequence (P23977 whole entry) above, with S21P, A57V, A194S, H600R, L619V counted along it

In the case of `CN1Cc2cc(-c3ccc(N)nn3)ccc2[C@H](c2ccc3ccccc3c2)C1` [Compound 1-(4S), 6-[(4S)-1,2,3,4-tetrahydro-2-methyl-4-(2-naphthalenyl)-7-isoquinolinyl]-3-pyridazinamine], the receptor occupancy at 0.3 mg/kg (DAT [1]; mouse brain, 0.3 mg/kg, tail suspension study) is reported as 28 ± 3%, the receptor occupancy at 1 mg/kg (DAT [1]; mouse brain, 1 mg/kg, tail suspension study) is reported as 54 ± 3% and the EC50 (DAT [1]; [9]) is reported as 1190 nM. For the same compound, the receptor occupancy at 1 mg/kg (DAT [1]; thermogenesis study, 1.0 mg/kg) was 55 ± 5.7%, the receptor occupancy at 3 mg/kg (DAT [1]; thermogenesis study, 3.0 mg/kg) was 74 ± 6% and the receptor occupancy at 10 mg/kg (DAT [1]; thermogenesis study, 10 mg/kg) was 83 ± 0.8%. For the same compound, the EC50 (DAT [2]; [9]) was 47 nM, the receptor occupancy at 1 mg/kg (DAT [2]; thermogenesis study, 1.0 mg/kg) was 37 ± 8.3% and the receptor occupancy at 3 mg/kg (DAT [2]; thermogenesis study, 3.0 mg/kg) was 55 ± 5.2%. The receptor occupancy at 10 mg/kg (DAT [2]; thermogenesis study, 10 mg/kg) was 71 ± 1.7%, the “dose that increased locomotor activity” value (locomotor activity) was 3.0 mg/kg and the “margin between effective dose in mouse tail suspension and increased locomotor activity” value (locomotor activity) was 10 fold. For the same compound, the “dose that increased stereotypy scores” value (stereotypy) was 10 mg/kg, the “margin between effective dose in mouse tail suspension and activity in stereotypy” value (stereotypy) was 30 fold and the SERT occupancy (SERT [3]) was “nearly saturated”. The NET occupancy (NET [4]) was “nearly saturated”, the “substitution for the cocaine stimulus” value (cocaine-lever responding) was “partially substituted for the cocaine stimulus” and the cocaine-lever responding (cocaine-lever responding; 0.1 mg/kg, 60 min) was “less than 1%”. For the same compound, the cocaine-lever responding (cocaine-lever responding; 0.3 mg/kg, 15 min) was 11%, the cocaine-lever responding (cocaine-lever responding; 0.3 mg/kg, 60 min) was 53% and the cocaine-lever responding (cocaine-lever responding; 1 mg/kg, 15 min) was 10%. For the same compound, the cocaine-lever responding (cocaine-lever responding; 3 mg/kg, 15 min) was 28%, the “Solution pH” value (Solution pH) was ~7.0 at about 1 μg/mL concentration in water and the “Solubility profile (USP definition)” value ([5]; N,N-dimethylacetamide, dimethylsulfoxide) was “soluble: N,N-dimethylacetamide, dimethylsulfoxide”. For the same compound, the “Solubility profile (USP definition)” value ([5]; PEG 400) was “sparingly soluble: PEG 400”, the “Solubility profile (USP definition)” value ([5]; acetonitrile, ethyl acetate, n-butanol) was “very slightly soluble: acetonitrile, ethyl acetate,” and the “Solubility profile (USP definition)” value ([5]; isopropanol, acetone, ethanol, methanol, propylene glycol, dichloromethane) was “slightly soluble: isopropanol, acetone, ethanol,”. The “Solubility profile (USP definition)” value ([5]; n-heptane) was “practically insoluble: n-heptane”, the “Solubility profile (USP definition)” value ([5]; tetrahydrofuran) was “freely soluble: tetrahydrofuran” and the Stability (Stability) was “Compound 1-(4S) is stable up to 25 °C with protection”. For the same compound, the IC50 (NET [6]) was 37.5 ± 2.5 nM, the IC50 (SERT [7]) was 18.5 ± 5.5 nM and the IC50 (SERT [8]) was 1.08 ± 0.09 nM.
